According to patent US9359371B2, “Bicyclic substituted pyrimidine compounds” (Xuanzhu Pharma Co., Ltd., priority 2012, dated 2016):
Like-named read-outs stand apart in the source and are kept apart here.

Assays:
[1] = system: length of New Zealand rabbit's penis; experiment: Pharmacological activity in vivo (oral administration, 70 mg/kg, with SNP), rabbit penis length; set-up: species or system New Zealand rabbits; conditions: Table 8; oral 70 mg/kg; SNP 0.2 mg/kg iv 60 min after; 0-180 min
Description: Experiment 7: Assay of Pharmacological Activity In Vivo (Oral Administration)
After accommodating with the environment, the New Zealand rabbits were grabbed everyday. When the rabbits were accustomed to the repeated grabbing, drug administration was began. The animals were randomly divided into groups by weight, with 6 rabbits of each group. […] The corresponding test compounds were orally administrated to animals of each group. The dosage was 70 mg/kg, and the administration volume was 1 mL/kg. SNP (0.2 mg/kg, 0.5 mL/kg) was injected into the auricular veins of rabbits 60 min after the administration of the test compounds. The length of the rabbit's penis was measured with a digital caliper before and 10, 15, 30, 50, 60, 65, 70, 75, 90, 110, 120 and 180 min after the administration. Touch of the rabbit's penis by the caliper was avoided during the measurements.

[2] = Pharmacokinetics (PK) in SD rats; format: in vivo; conditions: rat, 1 mg/kg
PDE-5A enzyme = PDE-5A enzyme (Homo sapiens (Human), UniProt O76074); experiment: Caliper Mobility-Shift PDE-5A Assay; format: biochemical; conditions: Table 1; Avanafil value is the control
[3] = target: PDE-5 enzyme (human blood platelets) (Homo sapiens (Human), UniProt O76074); experiment: PDE-5 enzyme assay, [3H]cGMP; format: biochemical
[4] = system: length of New Zealand rabbit's penis; experiment: Pharmacological activity in vivo (intravenous injection), rabbit penis length; set-up: species or system New Zealand rabbits; conditions: Table 5; iv 10 mg/kg, 1 mL/kg; sodium nitroprussiate 0.2 mg/kg iv 5 min after; 0-120 min
Description: Experiment 5: Assay of Pharmacological Activity In Vivo (Intravenous Injection)
After accommodating with the environment, the New Zealand rabbits were grabbed everyday. When the rabbits were accustomed to the repeated grabbing, drug administration was began. The animals were randomly divided into groups by weight. The test compounds were separately dissolved in menstruum. […] The corresponding test compounds were injected into the auricular veins of animals of each group. The dosage of the compounds in Table 5 was 10 mg/kg, and the administration volume was 1 mL/kg. The dosage of the compounds in Table 6 was 10 mg/kg, and the administration volume was 2 mL/kg. 0.2 mg/kg sodium nitroprussiate was intravenously injected into the rabbits 5 min after the administration of the test compounds, with the administration volume of 0.5 mL/kg.
The length of the rabbit's penis was measured with a digital caliper before and 10, 15, 30, 50, 60, 90 and 120 min after the administration. Touch of the rabbit's penis by the caliper was avoided during the measurements.

[5] = SD, plasma, po, intragastric administration
[6] = SD, plasma, intravenous injection

In the case of `COc1ccc(CNc2nc(N3CC4CC4C3)ncc2C(=O)N[C@H]2CC[C@H](O)CC2)cc1Cl` (stereo partly drawn) [Compound 11, 2-(3-azabicyclo[3.1.0]hexan-3-yl)-4-((3-chloro-4-methoxybenzyl)amino)-N-(trans-4-hydroxycyclohexyl)pyrimidine-5-formamide], the “AUC of penis length” value [1] is reported as 540.7 mm × min, the AUC(0-inf) [2, 5] is reported as 604 ng·h/mL and the Cmax [2, 5] is reported as 133 ng/mL. For the same molecule, the Tmax [2, 5] was 1 h, the half-life [2, 5] was 2.03 h and the bioavailability ([2]; SD, plasma, po, intragastric administration, read-out: F % (absolute bioavailability)) was 70.4%. The AUC(0-inf) [2, 6] was 858 ng·h/mL, the half-life [2, 6] was 2.4 h and the AUCinf ([2]; intragastric administration) was “higher exposure quality (AUC)”. For the same molecule, the “F % (absolute bioavailability)” value ([2]; intragastric administration) was “higher exposure quality (AUC) and bioavailability than Compound WO-88”, the AUCinf ([2]; intravenous injection) was “higher exposure quality (AUC)” and the Cl_obs ([2]; intravenous injection) was 19.7 mL/min/kg. The T1/2 ([2]; intravenous injection) was “longer half-life”, the Vss_obs ([2]; intravenous injection) was 3.44 L/kg and the IC50 (PDE-5A enzyme) was 4.02 nM. For the same molecule, the IC50 ([3]; Table 2-1, repetition, read-out: IC50 on PDE-5 (repetition of Example 2)) was 0.41 nM, the IC50 ([3]; Table 2, human blood platelet enzyme, read-out: IC50 on PDE-5) was 1.31 nM and the IC50 ([3]; Table 4-1, read-out: PDE-5 (IC50 nM)) was 0.41 nM. For the same molecule, the “AUC of penis length” value [4] was 323.3 mm × min.
